Source: US20260256792A1, “TREATMENT OF CHRONIC SPONTANEOUS URTICARIA BY ADMINISTERING (R)-2-[3-[4-AMINO-3-(2-FLUORO-4-PHENOXY-PHENYL)PYRAZOLO[3,4-D]PYRIMIDIN-1-YL]PIPERIDINE-1-CARBONYL]-4-METHYL-4-[4-(OXETAN-3-YL)PIPERAZIN-1-YL]PENT-2-ENENITRILE” (priority 2023, published 2026)

System: moderate-to-severe chronic spontaneous urticaria (CSU)
Assay: Phase 2 CSU study: urticaria activity score over 7 days (UAS7)
Type: in vivo, human
Conditions: Omalizumab-Naïve
Description: The study comprises a 12 week, randomized, double-blind, placebo-controlled, multi-center, dose-ranging efficacy and safety phase, followed by a 40 week open label extension (OLE) phase (see FIG. 1). The study consists of three phases and an optional OLE phase. […] Clinically, CSU is characterized by the spontaneous and recurrent appearance of pruritic hives. The proposed primary endpoints were the UAS7 at Week 12 in EU and EU reference countries and the ISS7 in the US. Regardless of where a participant was from, all assessments were the same. The UAS7 score is a composite score containing both the HSS7 and the ISS7. This allowed a global assessment of the two key components of urticaria: hives and itch. […] The UAS is a validated PRO measure. […] The daily UAS scores range from 0 to 6 point/day. […] Patients were to complete the UAS using the e-diary. […] The following secondary endpoints were to be analyzed using the same approach as for the primary endpoint: • Change from baseline in UAS7 at Week 4 • Change from baseline in UAS7 at Week 12 (for US and US reference countries) • Change from baseline in ISS7 at Week 12 (except US and US reference countries) • Change from baseline in HSS7 at Week 12 The following responder secondary endpoints were to be analyzed using the Cochran-Mantel-Haenszel test adjusted by region: • Proportion of participants with UAS7<6 at Week 12 • Proportion of participants with UAS7=0 at Week 12 Participants who received selected prohibited medications and/or rescue medications were to be considered as non-responders for time points after the medication usage. For other participants, all available data including those collected during the off-treatment period were to be used to determine the responder/non-responder status. Missing data were to be considered as non-responders.

[1] = Baseline Total IgE (IU/mL) ≥300, 400 mg BID
[2] = Baseline Total IgE (IU/mL) ≥300, 400 mg QPM
[3] = Baseline Total IgE (IU/mL) ≥300, 400 mg TID
[4] = Baseline UAS7 score <28, 400 mg BID
[5] = Baseline UAS7 score <28, 400 mg QPM
[6] = Baseline UAS7 score <28, 400 mg TID
[7] = Baseline UAS7 score ≥28, 400 mg BID
[8] = Baseline UAS7 score ≥28, 400 mg QPM
[9] = Baseline UAS7 score ≥28, 400 mg TID
[10] = Duration of disease (years) 2-10, 400 mg BID
[11] = Duration of disease (years) 2-10, 400 mg QPM
[12] = Duration of disease (years) 2-10, 400 mg TID
[13] = Duration of disease (years) <2, 400 mg BID
[14] = Duration of disease (years) <2, 400 mg QPM
[15] = Duration of disease (years) <2, 400 mg TID
[16] = Duration of disease (years) >10, 400 mg BID
[17] = Duration of disease (years) >10, 400 mg QPM
[18] = Duration of disease (years) >10, 400 mg TID
[19] = Ethnicity Non-Hispanic, 400 mg BID
[20] = Ethnicity Non-Hispanic, 400 mg QPM

SMILES: CC(C)(C=C(C#N)C(=O)N1CCC[C@@H](n2nc(-c3ccc(Oc4ccccc4)cc3F)c3c(N)ncnc32)C1)N1CCN(C2COC2)CC1 [rilzabrutinib, (R)-2-[3-[4-amino-3-(2-fluoro-4-phenoxy-phenyl)pyrazolo[3,4-d]pyrimidin-1-yl]piperidine-1-carbonyl]-4-methyl-4-[4-(oxetan-3-yl)piperazin-1-yl]pent-2-enenitrile]
- Change from Baseline in UAS7 at Week 12: Mean (SD) (Baseline Total IgE (IU/mL) ≥100, 400 mg TID): −17.31 (9.51)
- Change from Baseline in UAS7 at Week 12: LS Mean (SE) [1]: −14.22 (3.59)
- Change from Baseline in UAS7 at Week 12: LS Mean Diff vs. placebo (95% CI) [1]: −1.77 (−12.00, 8.47)
- Change from Baseline in UAS7 at Week 12: LS Mean (SE) [2]: −8.04 (3.57)
- Change from Baseline in UAS7 at Week 12: LS Mean Diff vs. placebo (95% CI) [2]: 4.42 (−5.58, 14.42)
- Change from Baseline in UAS7 at Week 12: Mean (SD) [2]: −9.60 (9.52)
- Change from Baseline in UAS7 at Week 12: LS Mean (SE) [3]: −14.94 (3.46)
- Change from Baseline in UAS7 at Week 12: LS Mean Diff vs. placebo (95% CI) [3]: −2.48 (−12.37, 7.41)
- Change from Baseline in UAS7 at Week 12: Mean (SD) [3]: −16.12 (9.22)
- Change from Baseline in UAS7 at Week 12: LS Mean Diff vs. placebo (95% CI) [4]: −4.49 (−12.35, 3.38)
- Change from Baseline in UAS7 at Week 12: Mean (SD) [4]: −11.43 (8.06)
- Change from Baseline in UAS7 at Week 12: LS Mean (SE) [5]: −5.87 (3.45)
- Change from Baseline in UAS7 at Week 12: LS Mean Diff vs. placebo (95% CI) [5]: −1.46 (−10.06, 7.14)
- Change from Baseline in UAS7 at Week 12: Mean (SD) [5]: −8.39 (3.86)
- Change from Baseline in UAS7 at Week 12: LS Mean Diff vs. placebo (95% CI) [6]: −7.34 (−15.21, 0.52)
- Change from Baseline in UAS7 at Week 12: Mean (SD) [6]: −13.43 (7.05)
- Change from Baseline in UAS7 at Week 12: LS Mean (SE) [7]: −17.23 (2.81)
- Change from Baseline in UAS7 at Week 12: LS Mean Diff vs. placebo (95% CI) [7]: −4.13 (−11.78, 3.52)
- Change from Baseline in UAS7 at Week 12: Mean (SD) [7]: −16.73 (14.20)
- Change from Baseline in UAS7 at Week 12: LS Mean (SE) [8]: −11.17 (2.39)
- Change from Baseline in UAS7 at Week 12: LS Mean Diff vs. placebo (95% CI) [8]: 1.94 (−5.16, 9.03)
- Change from Baseline in UAS7 at Week 12: LS Mean (SE) [9]: −19.91 (2.64)
- Change from Baseline in UAS7 at Week 12: LS Mean Diff vs. placebo (95% CI) [9]: −6.81 (−14.23, 0.62)
- Change from Baseline in UAS7 at Week 12: Mean (SD) [9]: −22.66 (12.35)
- Change from Baseline in UAS7 at Week 12: Mean (SD) (Baseline weight (kg) <72.9 (Median), 400 mg BID): −12.97 (9.84)
- Change from Baseline in UAS7 at Week 12: Mean (SD) (Baseline weight (kg) <72.9 (Median), 400 mg QPM): −7.98 (7.20)
- Change from Baseline in UAS7 at Week 12: Mean (SD) (Baseline weight (kg) <72.9 (Median), 400 mg TID): −20.83 (13.25)
- Change from Baseline in UAS7 at Week 12: LS Mean (SE) [10]: −12.88 (3.03)
- Change from Baseline in UAS7 at Week 12: LS Mean Diff vs. placebo (95% CI) [10]: −0.05 (−8.24, 8.14)
- Change from Baseline in UAS7 at Week 12: Mean (SD) [10]: −15.56 (14.75)
- Change from Baseline in UAS7 at Week 12: LS Mean (SE) [11]: −9.73 (2.58)
- Change from Baseline in UAS7 at Week 12: LS Mean Diff vs. placebo (95% CI) [11]: 3.11 (−4.51, 10.72)
- Change from Baseline in UAS7 at Week 12: Mean (SD) [11]: −10.83 (9.70)
- Change from Baseline in UAS7 at Week 12: LS Mean (SE) [12]: −16.44 (3.07)
- Change from Baseline in UAS7 at Week 12: LS Mean Diff vs. placebo (95% CI) [12]: −3.61 (−11.80, 4.58)
- Change from Baseline in UAS7 at Week 12: Mean (SD) [12]: −17.51 (11.39)
- Change from Baseline in UAS7 at Week 12: LS Mean (SE) [13]: −16.30 (2.66)
- Change from Baseline in UAS7 at Week 12: LS Mean Diff vs. placebo (95% CI) [13]: −9.24 (−17.02, −1.46)
- Change from Baseline in UAS7 at Week 12: Mean (SD) [13]: −14.54 (10.00)
- Change from Baseline in UAS7 at Week 12: LS Mean (SE) [14]: −10.62 (3.36)
- Change from Baseline in UAS7 at Week 12: LS Mean Diff vs. placebo (95% CI) [14]: −3.55 (−12.28, 5.17)
- Change from Baseline in UAS7 at Week 12: LS Mean (SE) [15]: −17.20 (3.03)
- Change from Baseline in UAS7 at Week 12: LS Mean Diff vs. placebo (95% CI) [15]: −10.14 (−18.42, −1.86)
- Change from Baseline in UAS7 at Week 12: Mean (SD) [15]: −19.20 (11.00)
- Change from Baseline in UAS7 at Week 12: LS Mean (SE) [16]: 8.87 (12.67)
- Change from Baseline in UAS7 at Week 12: LS Mean Diff vs. placebo (95% CI) [16]: 14.79 (−14.26, 43.85)
- Change from Baseline in UAS7 at Week 12: Mean (SD) [16]: −1.83 (NC)
- Change from Baseline in UAS7 at Week 12: LS Mean Diff vs. placebo (95% CI) [17]: 4.87 (−13.68, 23.41)
- Change from Baseline in UAS7 at Week 12: Mean (SD) [17]: −4.70 (7.74)
- Change from Baseline in UAS7 at Week 12: LS Mean (SE) [18]: −18.73 (5.22)
- Change from Baseline in UAS7 at Week 12: LS Mean Diff vs. placebo (95% CI) [18]: −12.81 (−29.81, 4.20)
- Change from Baseline in UAS7 at Week 12: Mean (SD) [18]: −23.13 (14.76)
- Change from Baseline in UAS7 at Week 12: LS Mean (SE) (Ethnicity Hispanic, 400 mg BID): −10.31 (3.59)
- Change from Baseline in UAS7 at Week 12: LS Mean Diff vs. placebo (95% CI) (Ethnicity Hispanic, 400 mg BID): 2.24 (−7.72, 12.19)
- Change from Baseline in UAS7 at Week 12: Mean (SD) (Ethnicity Hispanic, 400 mg BID): −10.23 (11.81)
- Change from Baseline in UAS7 at Week 12: LS Mean (SE) (Ethnicity Hispanic, 400 mg QPM): −8.80 (2.97)
- Change from Baseline in UAS7 at Week 12: LS Mean Diff vs. placebo (95% CI) (Ethnicity Hispanic, 400 mg QPM): 3.74 (−5.35, 12.83)
- Change from Baseline in UAS7 at Week 12: Mean (SD) (Ethnicity Hispanic, 400 mg QPM): −10.26 (9.92)
- Change from Baseline in UAS7 at Week 12: LS Mean (SE) (Ethnicity Hispanic, 400 mg TID): −13.76 (3.78)
- Change from Baseline in UAS7 at Week 12: LS Mean Diff vs. placebo (95% CI) (Ethnicity Hispanic, 400 mg TID): −1.22 (−11.34, 8.91)
- Change from Baseline in UAS7 at Week 12: Mean (SD) (Ethnicity Hispanic, 400 mg TID): −15.49 (12.69)
- Change from Baseline in UAS7 at Week 12: LS Mean (SE) [19]: −16.16 (2.46)
- Change from Baseline in UAS7 at Week 12: LS Mean Diff vs. placebo (95% CI) [19]: −7.92 (−14.63, −1.20)
- Change from Baseline in UAS7 at Week 12: Mean (SD) [19]: −16.52 (12.39)
- Change from Baseline in UAS7 at Week 12: LS Mean (SE) [20]: 9.79 (2.59)
- Change from Baseline in UAS7 at Week 12: LS Mean Diff vs. placebo (95% CI) [20]: −1.54 (−8.49, 5.41)
